Reference: ChEMBL document CHEMBL1201862, “PubChem BioAssay data set” (2004)
Active and inactive are the calls of the source.

Assays:
Cytochrome P450 1A2 = biological target: T1, Cytochrome P450 1A2 (Homo sapiens, UniProt P05177);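 further: PubChem cytochrome P450 panel assay, CYP1A2 panel member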
T1 sequence (P05177 whole entry): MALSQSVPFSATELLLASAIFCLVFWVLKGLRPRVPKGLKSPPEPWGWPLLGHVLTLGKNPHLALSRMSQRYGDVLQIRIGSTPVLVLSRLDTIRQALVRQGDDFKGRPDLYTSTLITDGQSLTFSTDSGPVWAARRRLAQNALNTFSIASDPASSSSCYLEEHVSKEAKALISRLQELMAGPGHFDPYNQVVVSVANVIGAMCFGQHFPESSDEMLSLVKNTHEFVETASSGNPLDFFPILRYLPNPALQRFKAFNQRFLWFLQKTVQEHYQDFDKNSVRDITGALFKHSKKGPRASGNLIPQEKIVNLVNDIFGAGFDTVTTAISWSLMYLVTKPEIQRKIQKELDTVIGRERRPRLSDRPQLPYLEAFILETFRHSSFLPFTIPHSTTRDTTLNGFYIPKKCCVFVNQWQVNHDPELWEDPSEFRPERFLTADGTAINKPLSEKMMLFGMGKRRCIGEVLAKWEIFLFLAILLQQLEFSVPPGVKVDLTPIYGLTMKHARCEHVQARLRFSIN

Cytochrome P450 3A4 = Cytochrome P450 3A4 (Homo sapiens, UniProt P08684);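 further: CYP3A4 tested as one member of a cytochrome P450 panel screen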
Cytochrome P450 2C19 = Cytochrome P450 2C19 (Homo sapiens, UniProt P33261); assay: Cytochrome panel assay with activity outcomes. Panel member name: p450-cyp2c19 Compounds with AC50 equal or less than 10 uM are considered active; format: functional
Cytochrome P450 2C9 = Cytochrome P450 2C9 (Homo sapiens, UniProt P11712)
[1] = inhibitors of intracellular T. cruzi replication, confirmation, NIH3T3 host cells, beta-gal luminescence (AID 2044); format: functional, cell-based;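 further: intracellular parasites grown in NIH/3T3 mouse fibroblasts as host cells; luminescent beta-galactosidase reporter signal from transgenic T. cruzi replicating inside host cells; inhibitors lower the luminescence signal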
[2] = cytotoxicity toward NIH3T3 fibroblasts, dose response, counter-screen, cell-based, ATP luminescence, mouse fibroblasts (AID 2010); format: functional;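 further: cells exposed to compound for about 90 hours before reading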

Chain of Cytochrome P450 3A4 (P08684 whole entry): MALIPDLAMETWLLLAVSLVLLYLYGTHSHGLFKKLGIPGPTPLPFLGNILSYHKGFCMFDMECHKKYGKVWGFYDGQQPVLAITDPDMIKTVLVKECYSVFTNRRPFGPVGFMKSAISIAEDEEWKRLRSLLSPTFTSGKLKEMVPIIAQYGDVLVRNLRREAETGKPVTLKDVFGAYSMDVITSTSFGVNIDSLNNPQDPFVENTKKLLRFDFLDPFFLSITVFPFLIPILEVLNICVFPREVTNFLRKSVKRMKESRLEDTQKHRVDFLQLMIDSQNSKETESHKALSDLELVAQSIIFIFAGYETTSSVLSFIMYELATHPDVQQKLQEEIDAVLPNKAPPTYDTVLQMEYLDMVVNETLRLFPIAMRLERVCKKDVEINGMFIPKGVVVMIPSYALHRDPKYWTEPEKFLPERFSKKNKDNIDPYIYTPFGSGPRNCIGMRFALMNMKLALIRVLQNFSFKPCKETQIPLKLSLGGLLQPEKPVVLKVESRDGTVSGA
Chain of Cytochrome P450 2C9 (P11712 whole entry): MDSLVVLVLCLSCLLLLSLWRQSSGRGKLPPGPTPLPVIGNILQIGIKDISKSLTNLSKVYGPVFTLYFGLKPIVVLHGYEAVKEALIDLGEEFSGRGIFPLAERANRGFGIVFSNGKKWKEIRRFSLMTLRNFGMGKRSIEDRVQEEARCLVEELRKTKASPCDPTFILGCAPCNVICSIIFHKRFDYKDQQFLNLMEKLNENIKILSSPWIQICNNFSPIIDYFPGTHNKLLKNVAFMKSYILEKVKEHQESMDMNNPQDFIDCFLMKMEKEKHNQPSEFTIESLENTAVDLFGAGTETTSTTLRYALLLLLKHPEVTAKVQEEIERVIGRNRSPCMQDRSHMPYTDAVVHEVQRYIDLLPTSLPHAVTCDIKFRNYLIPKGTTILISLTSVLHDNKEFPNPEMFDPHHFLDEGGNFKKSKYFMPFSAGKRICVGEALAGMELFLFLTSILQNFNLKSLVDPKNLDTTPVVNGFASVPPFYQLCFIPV
Chain of Cytochrome P450 2C19 (P33261 whole entry): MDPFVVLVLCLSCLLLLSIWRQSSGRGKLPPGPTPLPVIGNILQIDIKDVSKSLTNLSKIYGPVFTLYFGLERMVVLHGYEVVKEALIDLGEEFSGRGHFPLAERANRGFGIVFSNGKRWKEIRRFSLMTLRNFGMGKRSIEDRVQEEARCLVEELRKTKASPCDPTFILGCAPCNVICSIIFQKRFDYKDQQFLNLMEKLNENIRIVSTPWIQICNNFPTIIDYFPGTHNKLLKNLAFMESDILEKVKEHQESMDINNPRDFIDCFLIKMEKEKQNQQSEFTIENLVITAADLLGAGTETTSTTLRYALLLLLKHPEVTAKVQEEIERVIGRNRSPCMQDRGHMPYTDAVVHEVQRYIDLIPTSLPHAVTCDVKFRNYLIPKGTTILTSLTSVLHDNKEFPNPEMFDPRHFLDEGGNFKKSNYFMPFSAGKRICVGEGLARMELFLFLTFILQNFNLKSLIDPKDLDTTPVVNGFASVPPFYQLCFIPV

| SMILES | AC50 (Cytochrome P450 1A2) | AC50 (Cytochrome P450 3A4) | further results |
| --- | --- | --- | --- |
| COc1ccc(-c2nc3cnc(N4CCOCC4)nc3n(-c3ccc(OC)cc3)c2=O)cc1 | 10 µM (inconclusive) | – | – |
| COc1cc(OC)nc(NC(C)=O)n1 | 28.2 µM (inconclusive) | – | – |
| N[C@@H](Cn1cc(I)c(=O)n(Cc2ccc(C(=O)O)cc2)c1=O)C(=O)O | 31.6 µM (inconclusive) | – | AC50 (Cytochrome P450 2C19; read-out: AC50): 39.8 µM (inconclusive) |
| O=C(CSc1ncnc2c1cnn2CCc1ccccc1)Nc1ccc(F)cc1 | – | 1.41 µM (inconclusive) | – |
| CCC(=O)Nc1ccc(NC(=O)CSc2nnnn2-c2cccnc2)cc1C | – | – | AC50 (Cytochrome P450 2C19): inconclusive |
| CN1CCN(S(=O)(=O)c2cnccc2N2CCN(c3cccc(Cl)c3)CC2)CC1 | – | – | EC50 [1]: 1 µM (active); EC50 [2]: > 60 µM (inconclusive) |
| CO[C@@H]1COC(=O)[C@@H](CCSC)NC(=O)C/C=C\[C@@H](C)COC(=O)[C@H](C)NC(=O)C/C=C\[C@H]1C | – | – | AC50 (Cytochrome P450 2C19): inconclusive |
| O=C(CC(=O)N/N=C\c1c(Cl)cccc1Cl)NCc1ccccc1 | 14.1 µM (inconclusive) | 12.6 µM (inconclusive) | – |
| CCCCCCCCCCCCCCSCC(=O)O [TETRADECYLTHIOACETIC ACID] | – | – | AC50 (Cytochrome P450 2C9): 39.8 µM (inconclusive) |
| O=C(Nc1ccc(F)cc1)NC1CCN(Cc2ccccc2)CC1 | – | – | EC50 [1]: 0.476 µM (active); EC50 [2]: > 60 µM (not active) |
| COC(=O)[C@@H]1CC[C@H](C)[C@@H](c2ccc(C)cc2)N1C(=O)c1ccc(/C=N\OC[C@@H]2O[C@H](c3ccccc3)C=C[C@@H]2Oc2ccc(OC)cc2)cc1 | – | 3.16 µM (inconclusive) | – |
| CCOc1ccc2nc(NC(=O)C3CCN(c4cnccn4)CC3)sc2c1 | – | – | EC50 [1]: 2.48 µM (active); EC50 [2]: > 60 µM (not active) |
| c1ccc(NN(Cc2cnccn2)c2ccccc2)cc1 | – | 1 µM (inconclusive) | – |
| COC(=O)[C@@H]1CC[C@H](C)[C@@H](c2ccc(C)cc2)N1C(=O)c1ccc(/C=N\OC[C@@H](O)[C@H]2O[C@H]3OC(C)(C)O[C@H]3[C@@H]2O)cc1 | – | 6.31 µM (inconclusive) | – |
| COC(=O)[C@@]1(Cc2ccc(F)cc2)[C@H]2c3cc(C(=O)N(C)C)n(Cc4ccc(S(C)(=O)=O)cc4)c3C[C@H]2CN1C(=O)c1ccccc1 | 25.1 µM (inconclusive) | – | AC50 (Cytochrome P450 2C9): 15.8 µM (inconclusive) |
| COCCNc1ccnc(-c2ccccc2C)n1 | – | – | AC50 (Cytochrome P450 2C19; read-out: AC50): 15.8 µM (inconclusive) |
| COCCn1c(=O)c(-c2cc(F)cc(F)c2)nc2cnc(N3CCNCC3)nc21 | – | 20 µM (inconclusive) | – |
| Cc1ccc2ccccc2c1CSc1nc(N)nc2c1ncn2CC(C)C | – | – | AC50 (Cytochrome P450 2C9): 7.94 µM (inconclusive) |
| C=C(C)[C@H]1CC=C(C)/C(=N/NC(=O)CNc2ccccc2OC)C1 | – | – | AC50 (Cytochrome P450 2C19; read-out: AC50): 11.2 µM (inconclusive) |

Now from value to compound, other results behind:

| AC50 (Cytochrome P450 1A2) | AC50 (Cytochrome P450 3A4) | SMILES | further results |
| --- | --- | --- | --- |
| – | 5.01 µM (inconclusive) | C[C@@H](c1ccccc1)N1C(=O)[C@H]2[C@H]3[C@H](O)[C@H](O)C/C(=N/OCc4ccccc4)[C@@H]3CC[C@@H]2C1=O | – |
| – | 14.1 µM (inconclusive) | CCN(C(S)=Nc1ccccc1F)C1CCCCC1 | – |
| 15.8 µM (inconclusive) | – | COc1ccc(C(=O)NCS(=O)(=O)c2ccc(C)cc2)cc1 | – |
| – | 14.1 µM (inconclusive) | CCC(C(=O)N1CCOCC1)n1c(C(=O)OC)cc2occc21 (stereo unspecified) | AC50 (Cytochrome P450 2C9): 10 µM (inconclusive) |
| 15.8 µM (inconclusive) | – | C[C@@H](C(=O)NCCc1c[nH]c2ccccc12)[C@H]1C[C@]1(C)[C@H](NC(=O)OCc1ccccc1)c1ccccc1 | – |
| – | 10 µM (inconclusive) | CCCC[C@]1(C2CCCC2)Cc2cc(OCC(=O)O)c(Cl)c(Cl)c2C1=O | – |
| – | 35.5 µM (inconclusive) | CCOC(=O)c1ccc(Nc2nc(C(=O)OCC)nc3ccccc23)cc1 | AC50 (Cytochrome P450 2C9): 3.55 µM (inconclusive) |
| 31.6 µM (inconclusive) | – | CCn1c(=O)[nH]c2ccccc21 | – |
| – | 3.16 µM (inconclusive) | Cc1ccccc1NC(=S)NC(=O)c1cc(-c2ccccc2)nc2ccccc12 | – |
| 2 µM (inconclusive) | 3.16 µM (inconclusive) | COCCNC(=O)/C(C#N)=C/c1ccc(-c2ccc(OC)cc2[N+](=O)[O-])o1 | AC50 (Cytochrome P450 2C19; read-out: AC50): 3.55 µM (inconclusive); AC50 (Cytochrome P450 2C9): 39.8 µM (inconclusive) |
| – | 39.8 µM (inconclusive) | N#Cc1cccc(-c2nc3cnc(N4CCOCC4)nc3n(C3CC3)c2=O)c1 | – |
